Test results as given in patent US20220315574A1, “Beta-Arrestin-Modulating Compounds and Methods of Using Same” (Duke University, priority 2019, published 2022).
Where a name gives a salt, the structure may show the parent alone.

Experiments:
Format in all cases: cell-based
[1] = target: T1, βarr2 recruitment to agonist-activated β2V2R (Homo sapiens, UniProt P32121); experiment: DiscoveRx PathHunter β-arrestin recruitment assay in U2OS cells; conditions: series of compound concentrations, 30 min pretreatment, isoproterenol dose-response
T1 construct: host or cells: U2OS
Procedure: β-arrestin recruitment to the agonist-activated receptor (02V2R) was measured using the DiscoveRx PathHunter β-arrestin assay (Ahn, S. et al. Allosteric “beta-blocker” isolated from a DNA-encoded small molecule library. Proc Natl Acad Sci U SA 114, 1708-1713, doi:10.1073/pnas.1620645114 (2017)). […] Agonist-stimulated recruitment of βarr2 to the receptor results in the formation of functionally active β-gal enzyme. Addition of substrate generates a chemiluminescence signal directly correlated to the extent of recruitment. U2OS cells co-expressing β2V2R and βarr2 were plated in 96-well clear-bottomed plates at a density of 25,000 cells per well (80 μL per well), 24 hours prior to compound treatment. On the day of experiment, cells were first treated with compound or vehicle for 30 min, followed by agonist (Iso) stimulation for 60 min at 37° C. Cells were then treated with PathHunter™ detection reagents for 90 min at 37° C., and luminescence signals were measured using a CLARIOstar microplate reader (BMG Labtech Inc., Cary, N.C.).

V2R = experiment: BRET based receptor internalization assay; conditions: V2R-expressing cells stimulated with AVP
Procedure: BRET-based assays were performed to measure receptor internalization using two complementary bystander BRET-formats. First, the association of the receptor (β2V2R-RlucII or V2R-RlucII, BRET donor) with the early endosome (2×FYVE-mVenus, BRET acceptor) was directly measured following agonist stimulation as described previously (Smith, J. S. et al. C-X-C Motif Chemokine Receptor 3 Splice Variants Differentially Activate Beta-Arrestins to Regulate Downstream Signaling Pathways. Mol Pharmacol 92, 136-150, doi:10.1124/mol.117.108522 (2017)). Second, receptor internalization following agonist stimulation was determined by measuring BRET signal from labeled receptor (β2V2R-RlucII or V2R-RlucII, BRET donor) and plasma membrane component (myr-palm-mVenus, BRET acceptor). Cells were transfected with 2.5 μg V2R-RlucII and 10 μg 2×FYVE-mVenus or 2 μg of myr-palm-mVenus using FuGENE HD (Promega, Madison, Wis.) in an individual 10 cm dish. ˜24 hours post-transfection, cells were seeded in white 96-well clear-bottomed plates at a density of 75,000 cells per well. The following day cells were washed and the media was changed to Hanks' Balanced Salt Solution (HBSS) buffer supplemented with 10 mM HEPES for 1 hours at 37° C. Cells were pretreated with βarr modulating compounds (50 μM) or vehicle, then incubated for 30 min at 37° C. Cells were stimulated with increasing doses of agonist isoproterenol or arginine vasopressin (GenScript). Coelenterazine-h was added to the cells 5 min prior to BRET measurements to a final concentration of 5 μM. BRET measurements were performed using the Synergy2 (BioTek®) microplate reader with a filter set of 410/80 nm and 515/30 nm to detect the RlucII (donor) and mVenus (acceptor) light emissions, respectively. The BRET signal was determined by calculating the ratio of the light intensity emitted by the acceptor over the light intensity emitted by the donor. Net BRET was calculated using this ratio and subtracting the same ratio measured from cells expressing only the BRET donor.

β2AR = experiment: FRET-based cAMP accumulation (ICUE2 HEK293 cells), receptor desensitization; conditions: ICUE cells pretreated with inhibitor
Procedure: The Epac2 (ICUE2) sensor contains a CFP and YFP FRET pair. HEK293 cells stably expressing the ICUE2 cells were plated in poly-D-lysine-coated black 96 well plates (Corning) at a cell density of 50,000 cells per well. 16 hours after plating, cells were PBS-washed, then incubated in HEPES-buffered saline solution (150 mM NaCl, 5 mM KCl, 1 mM MgCl2, 2 mM CaCl2, 10 mM glucose, and 10 mM HEPES, pH 7.4) for one hour.

human AT1aR = experiment: Intracellular calcium measurement, receptor desensitization; conditions: AngII-induced calcium signal
Procedure: Intracellular [Ca^2+] release was measured using FLIPR Calcium 6 with the FlexStation 3 microplate reader according to the manufacturer's instructions (Molecular Devices, LLC). Briefly, HEK293 cells stably expressing human AT1aR were seeded in poly-D-lysine-coated black 96-well assay plates (35,000 cells per well) and incubated for 24 hours. On the day of experiment, cell plates were loaded with the appropriate calcium kit reagents and then treated with βarr small molecule modulators or vehicle for 30 min. Basal fluorescence (FO) was measured, agonist was applied while fluorescence (F) intensity was monitored in real time.

T1 sequence (P32121 whole entry): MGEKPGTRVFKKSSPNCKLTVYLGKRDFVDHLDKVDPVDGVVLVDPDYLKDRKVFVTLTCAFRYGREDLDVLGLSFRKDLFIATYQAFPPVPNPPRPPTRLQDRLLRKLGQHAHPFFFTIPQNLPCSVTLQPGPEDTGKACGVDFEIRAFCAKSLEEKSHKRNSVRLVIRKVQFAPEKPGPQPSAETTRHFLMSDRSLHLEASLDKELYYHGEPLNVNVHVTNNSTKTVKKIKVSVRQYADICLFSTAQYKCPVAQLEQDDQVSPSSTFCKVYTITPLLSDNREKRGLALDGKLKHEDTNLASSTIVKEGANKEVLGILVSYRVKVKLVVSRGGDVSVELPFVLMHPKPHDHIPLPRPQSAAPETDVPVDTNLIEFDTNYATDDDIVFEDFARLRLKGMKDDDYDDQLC

SMILES | maximal agonist induced βarr recruitment response [1] | internalization of the receptor and association with early endosomes (V2R) | isoproterenol-stimulated cAMP accumulation vs untreated control cells (β2AR) | desensitization of AT1aR (human AT1aR)
C=C1C(=O)C23[C@H](O)C1CC[C@H]2[C@]12COC3(O)[C@@H](O)[C@@H]1C(C)(C)CC[C@@H]2O [Cmpd-5, (1R,2S,10S,11R,15S,18R)-9,10,15,18-tetrahydroxy-12,12-dimethyl-6-methylidene-17-oxapentacyclo[7.6.2.15,8.01,11.02,8]octadecan-7-one] | significantly diminished | inhibit | increased cAMP accumulation | inhibited
CN(C)c1n/c(=N/Cc2ccco2)ss1 [Cmpd-30, 5-(furan-2-ylmethylimino)-N,N-dimethyl-1,2,4-dithiazol-3-amine;hydrobromide] | significantly diminished | inhibit | increased cAMP accumulation | inhibited
C=C1C(=O)OC2CC3(C)OC3CC/C(C)=C\C(OC(C)=O)C12 (stereo not drawn) [Cmpd-64, [(8Z)-3,8-dimethyl-12-methylidene-13-oxo-4,14-dioxatricyclo[9.3.0.03,5]tetradec-8-en-10-yl] acetate] | significantly diminished | inhibit | increased cAMP accumulation | inhibited
